Entries after “also recorded” stand apart in the source; their conditions may differ.
Columns and labels:
[1] = system: sterol response element (SRE); assay: SRE-luc reporter assay in HepG2 cells; type: cell-based, human; settings: concentrations ≤1 µM
Excerpt: Our phenotypic high-throughput screen (HTS) approach to identify nonlipogenic ABCA1 Inducers (NLAI) originally used counterscreening with a SREBP1c-luciferase reporter (linked to the SREBF1 gene promoter) in human hepatocarcinoma HepG2 cells ([Ben Aissa et al., 2021]). Unwanted lipogenesis is mediated by LXR agonists via direct transcriptional activation and indirectly by the effects of SREBP1c ([Schultz et al., 2000]; [Brown and Goldstein, 1997]). SREBP1c enhances transcription of genes required for synthesis of fatty acids and TG and as the dominant isoform in liver is associated most closely with lipogenesis and TG elevation ([Brown and Goldstein, 1997]). […] Binding of SREBP1c to the sterol response element (SRE) induces transcription of lipogenic genes associated with elevated TG. To better model the lipogenic axis in hepatocytes, we use HepG2 cells stably transfected with a nanoluciferase reporter downstream of a SRE promoter (SRE-luc), activation of which requires SREBP1c maturation.
HepG2 cells were cotransfected with SRE (LDLR)-NlucP SuperPiggyBac Transposon and a separate Transposase plasmid (System Biosciences). Cells were expanded for multiple passages followed by selection with puromycin (1 μg/ml). Stable cells constitutively express GFP allowed for FACS enrichment and/or cell cloning. Initially, stable pools were compared to low expressing and high expressing enriched pools. The optimal pool was selected based on assay performance (Z’) and was grown and maintained as above, with the addition of 1.0 μg/mL of puromycin biweekly.
Cells were split into flasks containing CS medium (EMEM supplemented with 10% charcoal stripped FBS (Gibco A52567-01)) and 1% P/S and grown at 37 °C /5% CO2 for 48 hr before plating. Cells were plated in 384-well, white clear tissue culture plates (Greiner 781098) and allowed to grow at 37 °C /5% CO2 for 24 hr before medium was aspirated and compound dilutions prepared in CS medium were added. Following a 24 hr incubation, the medium was aspirated, and cells were lysed/luminescence quantified using the Nano-Glo Luciferase Assay System (Promega N1130).

LXR [2] = assay: Corepressor (NCOR2, SMRT2) binding to LXR, CRT, statements across isoforms; type: biochemical; settings: monoplex CRT, absence of coactivator
LXRβ [3] = biological target: T1, LXRβ (Homo sapiens, UniProt P55055); assay: SRC-1 coactivator recruitment to LXRβ, coregulator TR-FRET (CRT); type: biochemical; parameters: The CRT selectivity assay incorporates GST-tagged LXR-LBD; purchased Thermo Fisher Scientific PV4660; settings: biotin-SRC-1 CRT; read-out: Potency (EC50) for SRC-1 recruitment to LXRβ
T1 sequence (P55055 222-460 limits assumed): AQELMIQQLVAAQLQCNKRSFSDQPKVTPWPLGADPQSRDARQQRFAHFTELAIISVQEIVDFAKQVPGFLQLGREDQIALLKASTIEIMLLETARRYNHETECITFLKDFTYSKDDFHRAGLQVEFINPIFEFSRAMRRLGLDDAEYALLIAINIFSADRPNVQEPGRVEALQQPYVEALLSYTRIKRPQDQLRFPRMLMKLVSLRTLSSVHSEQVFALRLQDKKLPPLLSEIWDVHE

LXR [4] = system: LXR; parameters: method as in Belorusova et al., 2019; settings: ref Belorusova et al., 2019; cited from earlier work
LXRβ [5] = biological target: T1, LXRβ; assay: NCOR2 corepressor binding to LXRβ, CRT; type: biochemical; parameters: The CRT selectivity assay incorporates GST-tagged LXR-LBD; purchased Thermo Fisher Scientific PV4660; settings: ligand 1 µM, interpolated from concentration-response, normalized; heat map Figure 9A; read-out: NCOR2β, relative % activity at 1 μM
human volunteers = settings: 2016, cited from earlier work
ABCA1 = assay: ABCA1-luc reporter assay in CCF-STTG1 astrocytoma cells; type: cell-based, human
Excerpt: Astrocytoma CCF-STTG1 cells, stably transfected with an ABCA1-promoter linked to a luciferase response element, provide a model for ABCA1 induction in astrocytes ([Ben Aissa et al., 2021]). […] Apparent inverse agonist activity in cell-based assays can result from ‘true’ inverse agonist recruitment of corepressors or from antagonist activity towards endogenous sterol LXR agonists. Although we use serum-stripped media, antagonism of endogenous LXR agonists cannot be ruled out.
Low passage CCF-STTG1 cells (20,000 cells/well) were seeded in 96-well plates in media containing charcoal-stripped FBS and incubated at 37 °C and 5% CO2 for 24 hr prior to a 24 hr treatment. All compounds were dissolved in DMSO, and final DMSO concentrations never exceeded 1%. After a 24 hr incubation period, add a volume of ONE-GLOEX Reagent that is equal to the volume of culture medium in each well and incubate for 3–5 min on the shaker. The luminescent activity of compounds ([…], 10-fold dilution) was examined using the ONE-GLOEX assay (Promega). […] The assays were performed in duplicates for each concentration, and the EC50 values were determined from non-linear regression analysis of the dose-response curve generated in GraphPad Prism 9.

LXRα [6] = biological target: T2, LXRα (Homo sapiens, UniProt Q13133); assay: Multiplex precision CRT (pCRT), SRC1 and NCOR2, LXRα; type: biochemical; parameters: The CRT selectivity assay incorporates GST-tagged LXR-LBD; purchased Thermo Fisher Scientific PV4657; settings: presence of SRC1, saturating ligand
T2 sequence (Q13133 209-447 limits assumed): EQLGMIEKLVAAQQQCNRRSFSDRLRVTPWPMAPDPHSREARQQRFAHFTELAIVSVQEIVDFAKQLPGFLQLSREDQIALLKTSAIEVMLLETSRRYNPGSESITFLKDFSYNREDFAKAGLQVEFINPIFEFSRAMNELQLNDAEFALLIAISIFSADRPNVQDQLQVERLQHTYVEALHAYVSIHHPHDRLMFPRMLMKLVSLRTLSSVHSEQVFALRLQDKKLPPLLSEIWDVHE

LXRα [7] = biological target: T2, LXRα; assay: NCOR2 corepressor binding to LXRα, CRT; type: biochemical; parameters: The CRT selectivity assay incorporates GST-tagged LXR-LBD; purchased Thermo Fisher Scientific PV4657; settings: ligand 1 µM, interpolated from concentration-response, normalized; heat map Figure 9A; read-out: NCOR2α, relative % activity at 1 μM
LXRα [8] = biological target: T2, LXRα; assay: SMRT2 corepressor binding to LXRα, CRT; type: biochemical; parameters: The CRT selectivity assay incorporates GST-tagged LXR-LBD; purchased Thermo Fisher Scientific PV4657; settings: ligand 1 µM, interpolated from concentration-response, normalized; heat map Figure 9A; read-out: SMRT2α, relative % activity at 1 μM
LXRβ [9] = biological target: T1, LXRβ; assay: SMRT2 corepressor binding to LXRβ, CRT; type: biochemical; parameters: The CRT selectivity assay incorporates GST-tagged LXR-LBD; purchased Thermo Fisher Scientific PV4660; settings: ligand 1 µM, interpolated from concentration-response, normalized; heat map Figure 9A; read-out: SMRT2β, relative % activity at 1 μM
LXRβ [10] = biological target: T1, LXRβ; assay: Multiplex precision CRT (pCRT), SRC1 and NCOR2, LXRβ; type: biochemical; parameters: The CRT selectivity assay incorporates GST-tagged LXR-LBD; purchased Thermo Fisher Scientific PV4660; settings: presence of SRC1

EC50 (LXRβ [3]): 10 nM
activity at 1 µM (LXRβ [5]): 129%
Maximal signal for NCOR2-bound LXRα in pCRT (LXRα [6]): significantly higher than zero
activity at 1 µM (LXRα [7]): 142%
activity at 1 µM (LXRα [8]): 152%
activity at 1 µM (LXRβ [9]): 153%
NCOR2 displacement from LXRβ in pCRT (LXRβ [10]): fully displaced
Compound: CC(C)(O)c1cn(-c2ccc(-c3cc(F)c(CO)c(S(C)(=O)=O)c3)cc2F)c(C(C)(C)c2c(Cl)cccc2Cl)n1 [XL041]
Efficacy of SRE activation at concentrations ≤1 µM [1]: 20–25 % of T0
Corepressor (NCOR2, SMRT2) displacement or stabilization, across LXR isoforms (LXR [2]): stabilized LXR complexes with corepressor bound; also recorded: strongly stabilized the corepressor-bound conformation
Ligand behaviour in HDX-MS analysis (H12 conformation) (LXR [4]): act as an antagonist
Cmax (human volunteers; human, 2.5 mg/kg p.o., Day 14, ref Kirchgessner et al., read-out: Cmax, drug concentration in plasma): ~30 nM
T½ (human volunteers; human, ref Kirchgessner et al.): ≈ 13 hr
Adverse effects in clinical trials (human volunteers; multi-day dosing, healthy and statin-treated subjects, ref Kirchgessner et al.): elevated plasma and liver lipids and neutropenia
ABCA1 expression in trial subjects (human volunteers; ref Katz et al., 2009, Kirchgessner et al.): increased ABCA1 expression in trial subjects
Selectivity for ABCA1 induction versus SRE activation (potency correlation outliers) (ABCA1; CCF ABCA1-luc versus HepG2 SRE-luc): selectivity for ABCA1 induction
ABCA1 induction response/phenotype in CCF cells (ABCA1; normalized to T0): partial agonist response

From paper PMC13286573, “Exploration of precision coregulator TR-FRET identifies diverse signatures for LXR ligands relevant to discovery of nonlipogenic ABCA1 inducers” (eLife, 2026)
